Laboratory results taken from ChEMBL document CHEMBL5113468, “Design, synthesis, and biological evaluation of novel double-winged galloyl derivatives as HIV-1 RNase H inhibitors” (Eur J Med Chem, 2022).

Assays:
[1] = biological target: Human immunodeficiency virus type 1 reverse transcriptase (Human immunodeficiency virus 1, UniProt Q72547); experiment: (§1) Inhibition of wild-type recombinant HIV-1 group M subtype B BH10 reverse transcriptase RNase-associated RNase H activity expressed in Escherichia coli XL1 blue using 32P-labeled 5'-UUUUUUUUUAGGAUACAUAUGGUUAAAGUAU-3'/5'-ATACTTTAACCATATGTATCC-3' RNA/DNA template-primer as substrate preincubated for 5 mins followed by substrate addition and measured after 15 mins by phosphorimaging analysis
[2] = Cytotoxicity against human MT4 cells assessed as reduction in cell viability measured after 5 days by MTT assay; assay type: toxicity, cell-based; details: time 5 day
[3] = system: Human immunodeficiency virus 2; experiment: Antiviral activity against HIV2 ROD infected in human MT4 cells assessed as protection against virus-induced cytopathic effect incubated for 5 days by MTT assay; assay type: functional, organism-based; details: Human immunodeficiency virus 2, ROD, MT4, 120 h
[4] = system: Human immunodeficiency virus 1; experiment: Antiviral activity against HIV1 3B infected in human MT4 cells assessed as protection against virus-induced cytopathic effect incubated for 5 days by MTT assay; assay type: functional, organism-based; details: Human immunodeficiency virus 1, 3B, MT4, 120 h
[5] = biological target: Human immunodeficiency virus type 1 reverse transcriptase (Human immunodeficiency virus 1) (UniProt Q72547); experiment: as §1, with “blue at 100 uM” for “blue”, “5'-[…]-3'/5'-[…]-3'” for “5'-UUUUUUUUUAGGAUACAUAUGGUUAAAGUAU-3'/5'-ATACTTTAACCATATGTATCC-3'”, “analysis relative to control” for “analysis”; details: time 20.0 min
[6] = biological target: Human immunodeficiency virus type 1 reverse transcriptase (Human immunodeficiency virus 1) (UniProt Q72547); experiment: Potency index, ratio of beta-thujaplicinol IC50 to test compound IC50 for inhibition of wild-type recombinant HIV-1 group M subtype B BH10 reverse transcriptase RNase-associated RNase H activity expressed in Escherichia coli XL1 blue
[7] = Apparent permeability across apical to basolateral side in human Caco-2 cells at 2 uM measured after 2 hrs by LC-MS/MS analysis; assay type: ADME, cell-based

IC50 [1]	inhibition [5]	Ratio IC50 [6]	Papp A→B at 2 h, 2 µM [7]	SMILES	CC50 at 120 h [2]	EC50 [3]	EC50 [4]
> 20 µM	57.1%			N#Cc1ccc(S(=O)(=O)N2CCN(C(=O)c3cc(O)c(O)c(O)c3)C(C(=O)NCc3ccco3)C2)cc1 (centres undefined)	108 µM	> 108 µM	> 108 µM
> 100 µM	45%			Nc1ccc(S(=O)(=O)N2CCN(C(=O)c3cc(O)c(O)c(O)c3)C(C(=O)NCc3cccs3)C2)cc1 (centres undefined)	167 µM	> 167 µM	> 235 µM
> 100 µM	47.6%			Nc1ccc(S(=O)(=O)N2CCN(C(=O)c3cc(O)c(O)c(O)c3)C(C(=O)NCc3ccc(-c4ccccc4)cc3)C2)cc1 (centres undefined)	207 µM	> 207 µM	> 207 µM
> 10 µM	81.4%			COc1ccc(CNC(=O)C2CN(S(=O)(=O)c3ccc(C#N)cc3)CCN2C(=O)c2cc(O)c(O)c(O)c2)cc1 (centres undefined)	21.4 µM	> 21.4 µM	> 21.4 µM
0.33 µM				Nc1ccc(S(=O)(=O)N2CCN(C(=O)c3cc(O)c(O)c(O)c3)C(C(=O)Nc3ccccc3)C2)cc1 (centres undefined)	50.8 µM	> 50.8 µM	> 50.8 µM
1.78 µM				CN(C(=O)C1CN(C(=O)c2cc(O)c(O)c(O)c2)CCN1S(=O)(=O)c1ccc(N)cc1)c1ccccc1 (centres undefined)	135 µM	> 135 µM	> 135 µM
0.31 µM				CN(C(=O)C1CN(S(=O)(=O)c2ccc(C#N)cc2)CCN1C(=O)c1cc(O)c(O)c(O)c1)c1ccccc1 (centres undefined)	113 µM	> 113 µM	> 113 µM
> 20 µM	71.9%			N#Cc1ccc(S(=O)(=O)N2CCN(C(=O)c3cc(O)c(O)c(O)c3)C(C(=O)NCc3ccc4ccccc4c3)C2)cc1 (centres undefined)	213 µM	> 213 µM	> 213 µM
0.99 µM				CN(C(=O)C1CN(S(=O)(=O)c2ccc(N)cc2)CCN1C(=O)c1cc(O)c(O)c(O)c1)c1ccccc1 (centres undefined)	237 µM	> 237 µM	> 237 µM
0.067 µM		30	0.2 ×10⁻⁶ cm/s	Nc1ccc(S(=O)(=O)N2CCN(C(=O)c3cc(O)c(O)c(O)c3)C(C(=O)NCc3ccco3)C2)cc1 (centres undefined)	24.7 µM	> 24.7 µM	> 24.7 µM
0.41 µM				N#Cc1ccc(S(=O)(=O)N2CCN(C(=O)c3cc(O)c(O)c(O)c3)C(C(=O)NCc3ccc(-c4ccccc4)cc3)C2)cc1 (centres undefined)	7.9 µM	> 7.9 µM	> 7.9 µM
0.56 µM				Nc1ccc(S(=O)(=O)N2CCN(C(=O)c3cc(O)c(O)c(O)c3)CC2C(=O)Nc2ccccc2)cc1 (centres undefined)	19.1 µM	> 19.1 µM	> 19.1 µM
0.27 µM				COc1ccc(CNC(=O)C2CN(S(=O)(=O)c3ccc(N)cc3)CCN2C(=O)c2cc(O)c(O)c(O)c2)cc1 (centres undefined)	21.7 µM	> 21.7 µM	> 21.7 µM
> 20 µM	60.6%			N#Cc1ccc(S(=O)(=O)N2CCN(C(=O)c3cc(O)c(O)c(O)c3)C(C(=O)Nc3ccccc3)C2)cc1 (centres undefined)	130 µM	> 130 µM	> 130 µM

The remaining lines, values behind:

SMILES	IC50 [1]	inhibition [5]	Ratio IC50 [6]	Papp A→B at 2 h, 2 µM [7]	CC50 at 120 h [2]	EC50 [3]	EC50 [4]
Nc1ccc(S(=O)(=O)N2CCN(C(=O)c3cc(O)c(O)c(O)c3)CC2C(=O)NCc2cccc3ccccc23)cc1 (centres undefined)	0.22 µM				21.6 µM	> 21.6 µM	> 21.6 µM
Nc1ccc(S(=O)(=O)N2CCN(C(=O)c3cc(O)c(O)c(O)c3)CC2C(=O)NCc2ccc(-c3ccccc3)cc2)cc1 (centres undefined)	0.34 µM				18.3 µM	> 18.3 µM	> 18.3 µM
Nc1ccc(S(=O)(=O)N2CCN(C(=O)c3cc(O)c(O)c(O)c3)CC2C(=O)NCc2ccco2)cc1 (centres undefined)	0.13 µM				25.3 µM	> 25.3 µM	> 25.3 µM
Nc1ccn([C@@H]2CS[C@H](CO)O2)c(=O)n1 [LAMIVUDINE]					> 87.3 µM		
CC(C)c1ccc(O)c(=O)c(O)c1 [BETA-THUJAPLICINOL]						> 2.5 µM	> 2.5 µM
CC(C)(C)OC(=O)N1CCC2(CCN(C(=O)C3CN(C(=O)c4cc(O)c(O)c(O)c4)CCN3S(=O)(=O)c3ccc(N)cc3)C2)C1 (centres undefined)	0.18 µM				42 µM	> 42 µM	> 42 µM
Cc1ccnc2c1NC(=O)c1cccnc1N2C1CC1 [NEVIRAPINE]					> 15 µM		0.17 µM
Nc1ccc(S(=O)(=O)N2CCN(C(=O)c3cc(O)c(O)c(O)c3)CC2C(=O)NCc2cccs2)cc1 (centres undefined)	> 100 µM	39.6%			235 µM	> 235 µM	> 235 µM
COc1ccc(CNC(=O)C2CN(C(=O)c3cc(O)c(O)c(O)c3)CCN2S(=O)(=O)c2ccc(N)cc2)cc1 (centres undefined)	0.14 µM				20.4 µM	> 20.4 µM	> 20.4 µM
Nc1ccc(S(=O)(=O)N2CCN(C(=O)c3cc(O)c(O)c(O)c3)CC2)cc1	0.72 µM				18 µM	> 18 µM	> 18 µM
COCCc1ccc(OCC(O)CNC(C)C)cc1 (centres undefined) [METOPROLOL]				< 0.48 ×10⁻⁶ cm/s			
